Test results reported in publication PMC3964510 (Diabetes, 2014).

Target: T1, protein tyrosine phosphatase (PTP) 1B (Homo sapiens, UniProt P18031)
T1 sequence (P18031 1-435): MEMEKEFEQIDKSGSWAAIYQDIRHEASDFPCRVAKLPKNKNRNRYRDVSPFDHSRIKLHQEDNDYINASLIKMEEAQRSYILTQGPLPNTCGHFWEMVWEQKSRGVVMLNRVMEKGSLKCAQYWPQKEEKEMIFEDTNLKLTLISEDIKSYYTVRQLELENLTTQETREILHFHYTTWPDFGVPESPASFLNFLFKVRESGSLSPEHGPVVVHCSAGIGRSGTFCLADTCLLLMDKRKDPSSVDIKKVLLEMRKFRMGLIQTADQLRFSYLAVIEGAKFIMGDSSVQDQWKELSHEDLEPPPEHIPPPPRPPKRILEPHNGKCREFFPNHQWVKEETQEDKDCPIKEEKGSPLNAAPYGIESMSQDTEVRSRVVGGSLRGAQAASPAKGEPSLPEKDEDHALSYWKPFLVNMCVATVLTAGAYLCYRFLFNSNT
Experiment: in vitro PTP1B inhibitor screening assay
Format: biochemical

C[C@H]1Oc2cc3c(-c4c(O)cc(O)c5c(O)c6c(cc45)O[C@H](C)[C@@H](C)C6=O)c(O)cc(O)c3c(O)c2C(=O)[C@@H]1C [4548-G05, [9,9′-Bi-4H-naphtho[2,3-b]pyran]-4,4′-dione,2,2′,3,3′-tetrahydro-5,5′,6,6′,8,8′-hexahydroxy-2,2′,3,3′-tetramethyl]
IC50: 75.3 ± 2.52 µM
